# How the values were obtained:
# late watergrass = experiment: Test Example 2: herbicidal activity, application during weed generation under submerged conditions (Table 17, symbol A); assay type: in vivo, late watergrass (Echinochloa oryzicola); settings: AAH 320 g/ha; application during weed generation, submerged conditions
# In short: (§1)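 Herbicide emulsion, diluted with water to the chosen amount, is applied onto 4 cm floodwater over alluvial soil where the weeds were co-sown and raised at 25–30° C. Application timing: 1–2 leaves. Assessment: three weeks afterwards.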
# redroot pigweed [1] = experiment: Test Example 4: herbicidal effect by soil treatment (Table 19, symbol N); assay type: in vivo, redroot pigweed (Amaranthus retroflexus)
# In short: (§2)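 Pre-emergence style soil spray: seeds under ~1.5 cm sterilized diluvial soil received a uniform coat of emulsion diluted to the predetermined herbicide amount. Greenhouse 25–30° C; readout at week three on previously defined criteria.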
# Italian ryegrass [2] = experiment: Test Example 5: herbicidal effect by foliage application, plastic box (Table 20, symbol K); assay type: in vivo, Italian ryegrass (Lolium multiflorum); settings: foliage application, 320 g/ha
# In short: (§3)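 Plants were sown into sterilized diluvial soil under about 1.5 cm cover and kept in a greenhouse at 25° C. to 30° C. Fourteen days on, foliage received an even spray of the diluted emulsion. Herbicidal or crop effect was judged three weeks afterwards.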
# southern crabgrass [3] = experiment: Test Example 4: herbicidal effect by soil treatment (Table 19, symbol F); assay type: in vivo, southern crabgrass (Digitaria ciliaris)
# In short: as §2
# barnyard grass [4] = experiment: Test Example 5: herbicidal effect by foliage application, plastic box (Table 20, symbol H); assay type: in vivo, barnyard grass (Echinochloa crus-galli); settings: foliage application, 320 g/ha
# In short: as §3
# blackgrass [5] = experiment: Test Example 4: herbicidal effect by soil treatment (Table 19, symbol J); assay type: in vivo, blackgrass (Alopecurus myosuroides)
# In short: as §2
# persian speedwell [6] = experiment: Test Example 4: herbicidal effect by soil treatment (Table 19, symbol R); assay type: in vivo, Persian speedwell (Veronica persica)
# In short: as §2
# windgrass [7] = experiment: Test Example 5: herbicidal effect by foliage application, plastic box (Table 20, symbol L); assay type: in vivo, windgrass (Apera spica-venti); settings: foliage application, 320 g/ha
# In short: as §3
# wild oat [8] = experiment: Test Example 4: herbicidal effect by soil treatment (Table 19, symbol I); assay type: in vivo, wild oat (Avena fatua)
# In short: as §2
# Japanese bulrush = experiment: Test Example 2: herbicidal activity, application during weed generation under submerged conditions (Table 17, symbol B); assay type: in vivo, Japanese bulrush (Schoenoplectus juncoides); settings: AAH 320 g/ha; application during weed generation, submerged conditions
# In short: as §1
# velvetleaf [9] = experiment: Test Example 5: herbicidal effect by foliage application, plastic box (Table 20, symbol M); assay type: in vivo, velvetleaf (Abutilon theophrasti); settings: foliage application, 320 g/ha
# In short: as §3
# chickweed [10] = experiment: Test Example 4: herbicidal effect by soil treatment (Table 19, symbol P); assay type: in vivo, common chickweed (Stellaria media); settings: 320 g/ha
# In short: as §2
# windgrass [11] = experiment: Test Example 4: herbicidal effect by soil treatment (Table 19, symbol L); assay type: in vivo, windgrass (Apera spica-venti)
# In short: as §2
# Italian ryegrass [12] = experiment: Test Example 4: herbicidal effect by soil treatment (Table 19, symbol K); assay type: in vivo, Italian ryegrass (Lolium multiflorum)
# In short: as §2
# barnyard grass [13] = experiment: Test Example 4: herbicidal effect by soil treatment (Table 19, symbol H); assay type: in vivo, barnyard grass (Echinochloa crus-galli)
# In short: as §2
# Chinese sprangletop = experiment: Test Example 3: herbicidal effect by foliage application, Wagner pot (Table 18, symbol D); assay type: in vivo, chinese sprangletop (Leptochloa chinensis)
# In short: (§4)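 Plants were sown in alluvial soil held under 0.1–0.5 cm standing water and grown 14 days in a greenhouse at 25–30 °C. An emulsifiable formulation, water-diluted to the set dose, was then sprayed onto the foliage, and effects were scored three weeks later using previously defined criteria.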
# southern crabgrass [14] = experiment: Test Example 5: herbicidal effect by foliage application, plastic box (Table 20, symbol F); assay type: in vivo, southern crabgrass (Digitaria ciliaris); settings: foliage application, 320 g/ha
# In short: as §3
# blackgrass [15] = experiment: Test Example 5: herbicidal effect by foliage application, plastic box (Table 20, symbol J); assay type: in vivo, blackgrass (Alopecurus myosuroides); settings: foliage application, 320 g/ha
# In short: as §3
# lambsquarters [16] = experiment: Test Example 5: herbicidal effect by foliage application, plastic box (Table 20, symbol O); assay type: in vivo, lambsquarters (Chenopodium album); settings: foliage application, 320 g/ha
# In short: as §3
# rice flat sedge = experiment: Test Example 3: herbicidal effect by foliage application, Wagner pot (Table 18, symbol E); assay type: in vivo, rice flat sedge (Cyperus iria)
# In short: as §4
# lambsquarters [17] = experiment: Test Example 4: herbicidal effect by soil treatment (Table 19, symbol O); assay type: in vivo, lambsquarters (Chenopodium album)
# In short: as §2
# green foxtail [18] = experiment: Test Example 5: herbicidal effect by foliage application, plastic box (Table 20, symbol G); assay type: in vivo, green foxtail (Setaria viridis); settings: foliage application, 320 g/ha
# In short: as §3
# barnyard grass [19] = experiment: Test Example 3: herbicidal effect by foliage application, Wagner pot (Table 18, symbol H); assay type: in vivo, barnyard grass (Echinochloa crus-galli)
# In short: as §4
# green foxtail [20] = experiment: Test Example 4: herbicidal effect by soil treatment (Table 19, symbol G); assay type: in vivo, green foxtail (Setaria viridis)
# In short: as §2
# oval-leafed pondweed = experiment: Test Example 2: herbicidal activity, application during weed generation under submerged conditions (Table 17, symbol C); assay type: in vivo, oval-leafed pondweed (Monochoria vaginalis); settings: AAH 320 g/ha; application during weed generation, submerged conditions
# In short: as §1
# velvetleaf [21] = experiment: Test Example 4: herbicidal effect by soil treatment (Table 19, symbol M); assay type: in vivo, velvetleaf (Abutilon theophrasti)
# In short: as §2
# persian speedwell [22] = experiment: Test Example 5: herbicidal effect by foliage application, plastic box (Table 20, symbol R); assay type: in vivo, Persian speedwell (Veronica persica); settings: foliage application, 320 g/ha
# In short: as §3
# wild oat [23] = experiment: Test Example 5: herbicidal effect by foliage application, plastic box (Table 20, symbol I); assay type: in vivo, wild oat (Avena fatua); settings: foliage application, 320 g/ha
# In short: as §3
# chickweed [24] = experiment: Test Example 5: herbicidal effect by foliage application, plastic box (Table 20, symbol P); assay type: in vivo, common chickweed (Stellaria media); settings: foliage application, 320 g/ha, evaluated three weeks after application
# In short: as §3
# redroot pigweed [25] = experiment: Test Example 5: herbicidal effect by foliage application, plastic box (Table 20, symbol N); assay type: in vivo, redroot pigweed (Amaranthus retroflexus); settings: foliage application, 320 g/ha, evaluated three weeks after application
# In short: as §3
# [26] = amount of applied herbicide 320 g/ha
# [27] = evaluated three weeks after application
smiles,measurement,setting,value
COCCOCOc1c(C)nn(C)c(=O)c1-c1c(-c2ccc(C(C)C)cc2)sc2ccc(F)cc12 [2-015],"herbicidal effect rating, A: late watergrass",late watergrass,4 (Herbicidal rate of 70% or more and less than 90%)
same,"herbicidal effect rating, N: redroot pigweed",redroot pigweed [1]; 320 g/ha,5 (Herbicidal rate of 90% or more (almost completely withered))
same,effect on Italian ryegrass (K),Italian ryegrass [2]; 3 weeks after application,0 (Herbicidal rate of 5% or less (almost no effect))
same,"herbicidal effect rating, F: southern crabgrass",southern crabgrass [3]; 320 g/ha,0 (Herbicidal rate of 5% or less (almost no effect))
same,effect on barnyard grass (H),barnyard grass [4]; 3 weeks after application,3 (Herbicidal rate of 40% or more and less than 70%)
same,"herbicidal effect rating, J: blackgrass",blackgrass [5]; 320 g/ha,0 (Herbicidal rate of 5% or less (almost no effect))
same,"herbicidal effect rating, R: persian speedwell",persian speedwell [6]; 320 g/ha,4 (Herbicidal rate of 70% or more and less than 90%)
same,effect on windgrass (L),windgrass [7]; 3 weeks after application,4 (Herbicidal rate of 70% or more and less than 90%)
same,"herbicidal effect rating, I: wild oat",wild oat [8]; 320 g/ha,0 (Herbicidal rate of 5% or less (almost no effect))
same,"herbicidal effect rating, B: Japanese bulrush",Japanese bulrush,0 (Herbicidal rate of 5% or less (almost no effect))
same,effect on velvetleaf (M),velvetleaf [9]; 3 weeks after application,5 (Herbicidal rate of 90% or more (almost completely withered))
same,"herbicidal effect rating, P: chickweed",chickweed [10],0 (Herbicidal rate of 5% or less (almost no effect))
same,"herbicidal effect rating, L: windgrass",windgrass [11]; 320 g/ha,0 (Herbicidal rate of 5% or less (almost no effect))
same,"herbicidal effect rating, K: Italian ryegrass",Italian ryegrass [12]; 320 g/ha,0 (Herbicidal rate of 5% or less (almost no effect))
same,"herbicidal effect rating, H: barnyard grass",barnyard grass [13]; 320 g/ha,0 (Herbicidal rate of 5% or less (almost no effect))
same,"herbicidal effect on D (Chinese sprangletop), rating 0-5",Chinese sprangletop; 320 g/ha,5 (Herbicidal rate of 90% or more (almost completely withered))
same,effect on southern crabgrass (F),southern crabgrass [14]; 3 weeks after application,1 (Herbicidal rate of 5% or more and less than 20%)
same,effect on blackgrass (J),blackgrass [15]; 3 weeks after application,0 (Herbicidal rate of 5% or less (almost no effect))
same,effect on lambsquarters (O),lambsquarters [16]; 3 weeks after application,5 (Herbicidal rate of 90% or more (almost completely withered))
same,"herbicidal effect on E (rice flat sedge), rating 0-5",rice flat sedge; 320 g/ha,5 (Herbicidal rate of 90% or more (almost completely withered))
same,"herbicidal effect rating, O: lambsquarters",lambsquarters [17]; 320 g/ha,2 (Herbicidal rate of 20% or more and less than 40%)
same,effect on green foxtail (G),green foxtail [18]; 3 weeks after application,0 (Herbicidal rate of 5% or less (almost no effect))
same,"herbicidal effect on H (barnyard grass), rating 0-5",barnyard grass [19]; 320 g/ha,5 (Herbicidal rate of 90% or more (almost completely withered))
same,"herbicidal effect rating, G: green foxtail",green foxtail [20]; 320 g/ha,0 (Herbicidal rate of 5% or less (almost no effect))
same,"herbicidal effect rating, C: oval-leafed pondweed",oval-leafed pondweed,0 (Herbicidal rate of 5% or less (almost no effect))
same,"herbicidal effect rating, M: velvetleaf",velvetleaf [21]; 320 g/ha,0 (Herbicidal rate of 5% or less (almost no effect))
same,effect on persian speedwell (R),persian speedwell [22]; 3 weeks after application,5 (Herbicidal rate of 90% or more (almost completely withered))
same,effect on wild oat (I),wild oat [23]; 3 weeks after application,0 (Herbicidal rate of 5% or less (almost no effect))
CCCSc1ccc(-c2sc3ccc(F)cc3c2-c2c(O)c(C)nn(C)c2=O)cc1 [2-248],herbicidal effect on P: chickweed (criteria 0-5),chickweed [24],5 (Herbicidal rate of 90% or more (almost completely withered))
same,"herbicidal effect rating, A: late watergrass",late watergrass,4 (Herbicidal rate of 70% or more and less than 90%)
same,herbicidal effect on N: redroot pigweed,redroot pigweed [1]; [26],5 (Herbicidal rate of 90% or more (almost completely withered))
same,herbicidal effect on K: Italian ryegrass (criteria 0-5),Italian ryegrass [2]; [27],4 (Herbicidal rate of 70% or more and less than 90%)
same,herbicidal effect on F: southern crabgrass,southern crabgrass [3]; [26],1 (Herbicidal rate of 5% or more and less than 20%)
same,herbicidal effect on H: barnyard grass (criteria 0-5),barnyard grass [4]; [27],5 (Herbicidal rate of 90% or more (almost completely withered))
same,herbicidal effect on J: blackgrass,blackgrass [5]; [26],0 (Herbicidal rate of 5% or less (almost no effect))
same,herbicidal effect on R: persian speedwell,persian speedwell [6]; [26],4 (Herbicidal rate of 70% or more and less than 90%)
same,herbicidal effect on L: windgrass (criteria 0-5),windgrass [7]; [27],5 (Herbicidal rate of 90% or more (almost completely withered))
same,herbicidal effect on I: wild oat,wild oat [8]; [26],0 (Herbicidal rate of 5% or less (almost no effect))
same,"herbicidal effect rating, B: Japanese bulrush",Japanese bulrush,0 (Herbicidal rate of 5% or less (almost no effect))
same,herbicidal effect on M: velvetleaf (criteria 0-5),velvetleaf [9]; [27],5 (Herbicidal rate of 90% or more (almost completely withered))
same,herbicidal effect on L: windgrass,windgrass [11]; [26],0 (Herbicidal rate of 5% or less (almost no effect))
same,herbicidal effect on K: Italian ryegrass,Italian ryegrass [12]; [26],0 (Herbicidal rate of 5% or less (almost no effect))
same,herbicidal effect on N: redroot pigweed (criteria 0-5),redroot pigweed [25],5 (Herbicidal rate of 90% or more (almost completely withered))
same,herbicidal effect on H: barnyard grass,barnyard grass [13]; [26],2 (Herbicidal rate of 20% or more and less than 40%)
same,herbicidal effect on D: Chinese sprangletop,Chinese sprangletop; [26],5 (Herbicidal rate of 90% or more (almost completely withered))
same,herbicidal effect on F: southern crabgrass (criteria 0-5),southern crabgrass [14]; [27],5 (Herbicidal rate of 90% or more (almost completely withered))
same,herbicidal effect on J: blackgrass (criteria 0-5),blackgrass [15]; [27],4 (Herbicidal rate of 70% or more and less than 90%)
same,herbicidal effect on O: lambsquarters (criteria 0-5),lambsquarters [16]; [27],5 (Herbicidal rate of 90% or more (almost completely withered))
same,herbicidal effect on E: rice flat sedge,rice flat sedge; [26],4 (Herbicidal rate of 70% or more and less than 90%)
same,herbicidal effect on O: lambsquarters,lambsquarters [17]; [26],4 (Herbicidal rate of 70% or more and less than 90%)
same,herbicidal effect on G: green foxtail (criteria 0-5),green foxtail [18]; [27],5 (Herbicidal rate of 90% or more (almost completely withered))
same,herbicidal effect on H: barnyard grass,barnyard grass [19]; [26],5 (Herbicidal rate of 90% or more (almost completely withered))
same,herbicidal effect on G: green foxtail,green foxtail [20]; [26],4 (Herbicidal rate of 70% or more and less than 90%)
same,"herbicidal effect rating, C: oval-leafed pondweed",oval-leafed pondweed,0 (Herbicidal rate of 5% or less (almost no effect))
same,herbicidal effect on M: velvetleaf,velvetleaf [21]; [26],3 (Herbicidal rate of 40% or more and less than 70%)
same,herbicidal effect on R: persian speedwell (criteria 0-5),persian speedwell [22]; [27],5 (Herbicidal rate of 90% or more (almost completely withered))
same,herbicidal effect on I: wild oat (criteria 0-5),wild oat [23]; [27],5 (Herbicidal rate of 90% or more (almost completely withered))

# Reference: patent US20230085307A1, “PYRIDAZINONE COMPOUND AND HERBICIDE” (NISSAN CHEMICAL CORPORATION, priority 2019, published 2023)
